Data taken from patent US10487329B2, “Methods and compositions for the treatment of head and neck cancer” (Children's Hospital Medical Center, priority 2015, dated 2019).

Key:
MDS = conditions: references [20, 24]; cited from earlier work
IRAK1 = target: T1, IRAK1 (Homo sapiens, UniProt P51617); test: Western blot for IRAK1 activation (phospho-IRAK1 Thr209) in HNSCC cell lines; format: cell-based; conditions: 10 μM, 24-72 hours post-treatment, UMSCC1 and UMSCC47 cells
T1 construct: endogenous in cells; host or cells: UMSCC1 and UMSCC47 cells
Protocol: Western blotting. Whole cell lysates were harvested using Laemmli buffer and a total of 20 μg of protein was analyzed as described previously. Membranes were probed with DEK (1:1000, BD Biosciences, San Jose, Calif., USA), IRAK1 (1:1000, Santa Cruz Biotechnology, Dallas, Tex., USA (sc-7883)), TRAF6 (1:1000, Santa Cruz (sc-7221)), phospho-IRAK1 (Thr209, 1:800, Assay Biotechnology Company (A1074), Sunnyvale, Calif., USA), phospho-p38 (1:500, Cell Signaling Technologies (4361)), p38 (1:1000, Cell Signaling Technologies (9212)), phospho-ERK1/2 (1:1000, Cell Signaling Technologies (4377)), ERK1/2 (1:1000, Cell Signaling Technologies (4695)), phospho-IKKa/r3 (1:500, Cell Signaling Technologies (2697)), IKKa (1:1000, Cell Signaling Technologies (2682)), phospho-hcBa (1:500, Cell Signaling Technologies (9246)), hcBa (1:1000, Cell Signaling Technologies (4812)), a-tubulin-HRP (1:10,000 Cell Signaling Technologies (9099)), actin (1:10,000 a gift from James Lessard), and GAPDH (1:1000, Cell Signaling Technologies (5174)).
IRAK1 inhibitor. […]
(§1) Cells and media were collected 72 hours later and prepared and analyzed as above. For the time-course experiment, cells were plated and inhibitor was added the following day, with protein collected at 24, 48, and 72 hours and analyzed by western blot for IRAK1 inhibition.

melanoma cells = conditions: in vitro and in vivo, references [20, 24]; cited from earlier work
UMSCC1 cells = test: Flow cytometry for cleaved caspase-3 (apoptosis), UMSCC1; format: cell-based, human; conditions: UMSCC1, inhibitor vs DMSO, 72 hours, p<0.05
Protocol: Flow cytometry for Cleaved Caspase-3. Lentivirally transduced cells were plated at equal densities and collected 48 hours later. Cells were fixed and prepped following the BD FITC Active Caspase-3 Apoptosis kit protocol (BD Biosciences). Adenovirally transduced cells were prepped with an Alexa-Fluor 647 conjugated cleaved-caspase 3 antibody to account for GFP-positivity (Cell Signaling Technologies (9602)). Analysis was performed on a BD FacsCanto and data analyzed on FlowJo software (Tree Star, Ashland, Oreg., USA). Experiments were performed 3 times with standard error of the mean (SEM) represented.
IRAK1 inhibitor. UMSCC1 cells were plated at equal densities and IRAK1 inhibitor (IRAK-1/4 inhibitor, 15409, Sigma-Aldrich, St. Louis, Mo., USA) added the same day for caspase-3 flow cytometry experiments. DMSO was added in equal volume for a control.
as §1

IRAK1 and IRAK4 = conditions: reference [24]; cited from earlier work

T1 sequence (P51617 whole entry): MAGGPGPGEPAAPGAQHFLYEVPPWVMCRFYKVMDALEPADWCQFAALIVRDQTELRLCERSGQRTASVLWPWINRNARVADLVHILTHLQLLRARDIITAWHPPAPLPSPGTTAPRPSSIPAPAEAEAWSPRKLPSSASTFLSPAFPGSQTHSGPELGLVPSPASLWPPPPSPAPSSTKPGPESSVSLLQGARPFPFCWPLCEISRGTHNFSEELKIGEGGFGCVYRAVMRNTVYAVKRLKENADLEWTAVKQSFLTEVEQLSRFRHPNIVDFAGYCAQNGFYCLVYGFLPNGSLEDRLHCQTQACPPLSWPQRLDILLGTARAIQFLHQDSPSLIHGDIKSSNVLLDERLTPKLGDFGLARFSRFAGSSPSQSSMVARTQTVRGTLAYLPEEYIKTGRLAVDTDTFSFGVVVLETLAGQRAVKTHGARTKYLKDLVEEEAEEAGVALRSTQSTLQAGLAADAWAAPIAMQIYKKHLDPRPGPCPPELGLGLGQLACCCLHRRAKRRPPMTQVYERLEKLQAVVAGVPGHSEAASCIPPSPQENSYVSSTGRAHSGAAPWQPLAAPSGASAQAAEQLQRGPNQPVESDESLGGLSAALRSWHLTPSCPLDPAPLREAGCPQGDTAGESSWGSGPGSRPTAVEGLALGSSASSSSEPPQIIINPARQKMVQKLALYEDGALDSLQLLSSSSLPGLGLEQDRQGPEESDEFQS

activation of IRAK1 (phosphorylation of IRAK1) (IRAK1): attenuated activation of IRAK1
SMILES: O=C(Nc1nc2ccccc2n1CCN1CCOCC1)c1cccc([N+](=O)[O-])c1 [IRAK-1/4 inhibitor, N-(2-morpholinylethyl)-2-(3-nitrobenzoylamido)-benzimidazole]
signaling and cell viability in MDS (MDS): inhibit signaling and cell viability | apoptosis in melanoma cells (melanoma cells): increase apoptosis | apoptosis (cleaved caspase-3) (UMSCC1 cells): Significantly increased apoptosis | kinase selectivity (IRAK1 and IRAK4): selective for IRAK1 and IRAK4
